Measured values from ChEMBL document CHEMBL1147817, “Two novel furan derivatives from Phellinus linteus with anti-complement activity” (Bioorg Med Chem Lett, 2006).

Assay: Inhibition of classical pathway of the complement system
Assay type: functional, Homo sapiens

IC50 [µM] | Structure (SMILES)
33.6 | CO[C@H]1O[C@@H](C(O)CO)/C(=C/c2ccc(CO)o2)C1=O (stereo partly drawn) [PHELLINUSFURAN A]
33.7 | CO[C@H]1O[C@H](C(O)CO)/C(=C/c2ccc(CO)o2)C1=O (stereo partly drawn) [PHELLINUSFURAN B]
180 | O=C(/C=C/c1ccc(O)c(O)c1)O[C@H](Cc1ccc(O)c(O)c1)C(=O)O [ROSMARINIC ACID]
